Results published in patent US11180494B2, “Substituted amino acids as integrin inhibitors” (Pliant Therapeutics, Inc., priority 2018, dated 2021).

Molecular target: human integrin αvβ6 (Homo sapiens (Human), UniProt P06756+P18564)
Assay: Proximity-based integrin receptor binding assay (ALPHASCREEN) for inhibitor potency
Details: inhibition of binding of TGF-b1 LAP to human integrin αvβ6; values given in ranges
How it was run: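 AlphaScreen: integrin, compound, TGF-b1 LAP, biotinylated anti-LAP antibody and acceptor beads incubated 2 hours, then streptavidin donor beads 30 minutes, at room temperature in 50 mM Tris-HCl pH 7.5, 0.1% BSA, 1 mM CaCl2 and MgCl2. Excitation 680 nm, emission 520-620 nm; IC50 by four-parameter logistic fit.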

Chain of human integrin αvβ6 (P06756 31-992): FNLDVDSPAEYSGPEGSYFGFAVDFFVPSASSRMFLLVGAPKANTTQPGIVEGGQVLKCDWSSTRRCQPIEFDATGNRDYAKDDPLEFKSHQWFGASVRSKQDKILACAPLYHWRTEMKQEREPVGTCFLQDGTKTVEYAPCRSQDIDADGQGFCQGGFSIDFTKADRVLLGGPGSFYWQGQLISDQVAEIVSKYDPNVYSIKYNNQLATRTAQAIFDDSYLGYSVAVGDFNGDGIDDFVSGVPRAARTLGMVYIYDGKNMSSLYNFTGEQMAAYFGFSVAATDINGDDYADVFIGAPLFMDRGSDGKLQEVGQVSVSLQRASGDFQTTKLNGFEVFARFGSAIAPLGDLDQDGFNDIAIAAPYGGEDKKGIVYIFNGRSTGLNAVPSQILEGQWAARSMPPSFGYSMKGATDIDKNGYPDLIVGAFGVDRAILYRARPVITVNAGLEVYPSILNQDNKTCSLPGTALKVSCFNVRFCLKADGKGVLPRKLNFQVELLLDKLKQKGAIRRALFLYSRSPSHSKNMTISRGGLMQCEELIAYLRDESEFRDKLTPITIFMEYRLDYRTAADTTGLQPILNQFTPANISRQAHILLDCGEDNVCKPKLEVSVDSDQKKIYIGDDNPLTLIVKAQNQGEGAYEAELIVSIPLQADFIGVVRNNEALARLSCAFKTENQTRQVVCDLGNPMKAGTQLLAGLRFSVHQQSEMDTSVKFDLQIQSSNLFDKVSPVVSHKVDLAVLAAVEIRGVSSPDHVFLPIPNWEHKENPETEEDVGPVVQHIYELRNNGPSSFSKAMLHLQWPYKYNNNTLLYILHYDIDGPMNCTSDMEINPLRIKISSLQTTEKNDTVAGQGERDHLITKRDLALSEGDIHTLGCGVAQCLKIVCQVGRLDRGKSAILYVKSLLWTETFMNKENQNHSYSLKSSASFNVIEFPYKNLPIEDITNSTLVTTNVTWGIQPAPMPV
Chain of human integrin αvβ6 (P18564 22-707): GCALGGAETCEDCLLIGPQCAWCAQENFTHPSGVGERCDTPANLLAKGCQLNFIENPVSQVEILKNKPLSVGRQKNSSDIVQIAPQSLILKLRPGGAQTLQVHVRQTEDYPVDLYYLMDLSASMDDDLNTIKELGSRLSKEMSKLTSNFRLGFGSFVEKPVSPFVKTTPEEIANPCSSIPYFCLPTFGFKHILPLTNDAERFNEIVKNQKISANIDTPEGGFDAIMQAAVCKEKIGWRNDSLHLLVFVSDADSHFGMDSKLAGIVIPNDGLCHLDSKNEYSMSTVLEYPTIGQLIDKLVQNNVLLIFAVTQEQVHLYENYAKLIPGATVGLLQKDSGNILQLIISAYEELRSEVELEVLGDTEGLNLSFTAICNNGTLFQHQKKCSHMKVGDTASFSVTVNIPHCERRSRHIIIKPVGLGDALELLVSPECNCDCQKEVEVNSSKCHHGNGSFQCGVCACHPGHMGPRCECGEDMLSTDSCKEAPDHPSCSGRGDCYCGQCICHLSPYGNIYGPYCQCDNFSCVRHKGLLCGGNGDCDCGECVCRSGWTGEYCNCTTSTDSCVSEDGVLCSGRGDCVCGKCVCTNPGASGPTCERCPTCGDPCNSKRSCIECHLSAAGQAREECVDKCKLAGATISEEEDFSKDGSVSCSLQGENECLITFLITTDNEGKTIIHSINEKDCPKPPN

IC50 | Compound
250 to 1000 nM | CC(=O)NC[C@@H](C)OC(=O)N[C@@H](CCO[C@H]1C[C@H](CCc2ccc3c(n2)NCCC3)C1)C(=O)O [Compound 154, N—((((R)-1-acetamidopropan-2-yl)oxy)carbonyl)-O-(trans-3-(2-(5,6,7,8-tetrahydro-1,8-naphthyridin-2-yl)ethyl)cyclobutyl)homoserine]
< 50 nM | O=C(NC(CCO[C@H]1C[C@H](CCc2ccc3c(n2)NCCC3)C1)C(=O)O)C1CCCC(F)(F)C1 (stereo partly drawn) [Compound 161, N-(3,3-difluorocyclohexane-1-carbonyl)-O-(trans-3-(2-(5,6,7,8-tetrahydro-1,8-naphthyridin-2-yl)ethyl)cyclobutyl)homoserine]
< 50 nM | CC1(C(=O)N[C@@H](CCO[C@H]2C[C@H](CCc3ccc4c(n3)NCCC4)C2)C(=O)O)CCOCC1 [Compound 164, N-(4-methyltetrahydro-2H-pyran-4-carbonyl)-O-(trans-3-(2-(5,6,7,8-tetrahydro-1,8-naphthyridin-2-yl)ethyl)cyclobutyl)homoserine]
< 50 nM | CC(C)(C(=O)N[C@@H](CCO[C@H]1C[C@H](CCc2ccc3c(n2)NCCC3)C1)C(=O)O)C1CCCCC1 [Compound 165, N-(2-cyclohexyl-2-methylpropanoyl)-O-(trans-3-(2-(5,6,7,8-tetrahydro-1,8-naphthyridin-2-yl)ethyl)cyclobutyl)homoserine]
50 to 250 nM | O=C(N[C@@H](CCO[C@H]1C[C@H](CCc2ccc3c(n2)NCCC3)C1)C(=O)O)c1ccccc1-c1ccccn1 [Compound 166, N-(2-(pyridin-2-yl)benzoyl)-O-(trans-3-(2-(5,6,7,8-tetrahydro-1,8-naphthyridin-2-yl)ethyl)cyclobutyl)homoserine]
50 to 250 nM | O=C(N[C@@H](CCO[C@H]1C[C@H](CCc2ccc3c(n2)NCCC3)C1)C(=O)O)c1ccccc1N1CCOCC1 [Compound 168, N-(2-morpholinobenzoyl)-O-(trans-3-(2-(5,6,7,8-tetrahydro-1,8-naphthyridin-2-yl)ethyl)cyclobutyl)homoserine]
50 to 250 nM | CCC(CC)(C(=O)N[C@@H](CCO[C@H]1C[C@H](CCc2ccc3c(n2)NCCC3)C1)C(=O)O)c1ccccc1 [Compound 169, N-(2-ethyl-2-phenylbutanoyl)-O-(trans-3-(2-(5,6,7,8-tetrahydro-1,8-naphthyridin-2-yl)ethyl)cyclobutyl)homoserine]
< 50 nM | N#CC1(C(=O)N[C@@H](CCO[C@H]2C[C@H](CCc3ccc4c(n3)NCCC4)C2)C(=O)O)CCOCC1 [Compound 171, N-(4-cyanotetrahydro-2H-pyran-4-carbonyl)-O-(trans-3-(2-(5,6,7,8-tetrahydro-1,8-naphthyridin-2-yl)ethyl)cyclobutyl)homoserine]
< 50 nM | Cc1cc(F)cc(C)c1C(=O)NC(CCOC1CC(CCc2ccc3c(n2)NCCC3)C1)C(=O)O (centres unmarked) [Compound 175]
50 to 250 nM | CC1(C(=O)N[C@@H](CCO[C@H]2C[C@@H](CCc3ccc4c(n3)NCCC4)C2)C(=O)O)CCOCC1 [Compound 179, N-(4-methyltetrahydro-2H-pyran-4-carbonyl)-O-(cis-3-(2-(5,6,7,8-tetrahydro-1,8-naphthyridin-2-yl)ethyl)cyclobutyl) homoserine]
< 50 nM | CCC1(C(=O)N[C@@H](CCO[C@H]2C[C@H](CCc3ccc4c(n3)NCCC4)C2)C(=O)O)CCC(F)(F)CC1 [Compound 181, N-(1-ethyl-4,4-difluorocyclohexane-1-carbonyl)-O-(trans-3-(2-(5,6,7,8-tetrahydro-1,8-naphthyridin-2-yl)ethyl)cyclobutyl)homoserine]
50 to 250 nM | Cc1ccc2c(c1)N(C(=O)C1(C(=O)N[C@@H](CCO[C@H]3C[C@H](CCc4ccc5c(n4)NCCC5)C3)C(=O)O)CC1)CC2 [Compound 182, N-(1-(6-methylindoline-1-carbonyl)cyclopropane-1-carbonyl)-O-(trans-3-(2-(5,6,7,8-tetrahydro-1,8-naphthyridin-2-yl)ethyl)cyclobutyl)homoserine]
< 50 nM | O=C(O)[C@H](CCO[C@H]1C[C@H](CCc2ccc3c(n2)NCCC3)C1)NC(=O)C1(Cc2cccnc2)CC1 [Compound 185, N-(1-(pyridin-3-ylmethyl)cyclopropane-1-carbonyl)-O-(trans-3-(2-(5,6,7,8-tetrahydro-1,8-naphthyridin-2-yl)ethyl)cyclobutyl)homoserine]
50 to 250 nM | O=C(NC(CCOCCCCc1ccc2c(n1)NCCC2)C(=O)O)c1c(Cl)cncc1Cl (centres unmarked) [Compound 189, N-(3,5-dichloroisonicotinoyl)-O-(4-(5,6,7,8-tetrahydro-1,8-naphthyridin-2-yl)butyl)homoserine]
50 to 250 nM | Cc1cncc(Cl)c1C(=O)N[C@@H](CCO[C@H]1C[C@@H](CCc2ccc3c(n2)NCCC3)C1)C(=O)O [Compound 199, N-(3-chloro-5-methylisonicotinoyl)-O-(cis-3-(2-(5,6,7,8-tetrahydro-1,8-naphthyridin-2-yl)ethyl)cyclobutyl)homoserine]
< 50 nM | O=C(O)[C@H](CCO[C@H]1C[C@H](CCc2ccc3c(n2)NCCC3)C1)Nc1ncnc2ccccc12 [Example 224, N-(quinazolin-4-yl)-O-(trans-3-(2-(5,6,7,8-tetrahydro-1,8-naphthyridin-2-yl)ethyl)cyclobutyl)homoserine]

The remaining lines, values behind:

Compound | IC50
CC(C)(C)OC(=O)N1CC(OC(=O)N[C@@H](CCO[C@H]2C[C@H](CCc3ccc4c(n3)NCCC4)C2)C(=O)O)(c2cccc(Cl)c2)C1 [Compound 157, N-(((1-(tert-butoxycarbonyl)-3-(3-chlorophenyl)azetidin-3-yl)oxy)carbonyl)-O-(trans-3-(2-(5,6,7,8-tetrahydro-1,8-naphthyridin-2-yl)ethyl)cyclobutyl)homoserine] | < 50 nM
CC(C)c1ccc(C2(OC(=O)N[C@@H](CCO[C@H]3C[C@H](CCc4ccc5c(n4)NCCC5)C3)C(=O)O)CN(C(=O)OC(C)(C)C)C2)cc1 [Compound 158, N-(((1-(tert-butoxycarbonyl)-3-(4-isopropylphenyl)azetidin-3-yl)oxy)carbonyl)-O-(trans-3-(2-(5,6,7,8-tetrahydro-1,8-naphthyridin-2-yl)ethyl)cyclobutyl)homoserine] | < 50 nM
CC(C)(C)OC(=O)N1CC(C#Cc2ccccc2)(OC(=O)N[C@@H](CCO[C@H]2C[C@H](CCc3ccc4c(n3)NCCC4)C2)C(=O)O)C1 [Compound 159, N-(((1-(tert-butoxycarbonyl)-3-(phenylethynyl)azetidin-3-yl)oxy)carbonyl)-O-(trans-3-(2-(5,6,7,8-tetrahydro-1,8-naphthyridin-2-yl)ethyl)cyclobutyl)homoserine] | < 50 nM
CC(C)(C)OC(=O)N1CCC(C(=O)N[C@@H](CCO[C@H]2C[C@H](CCc3ccc4c(n3)NCCC4)C2)C(=O)O)CC1 [Compound 160, N-(1-(tert-butoxycarbonyl)piperidine-4-carbonyl)-O-(trans-3-(2-(5,6,7,8-tetrahydro-1,8-naphthyridin-2-yl)ethyl)cyclobutyl)homoserine] | 50 to 250 nM
CC(C)(C)OC(=O)N1CC(C)(C(=O)N[C@@H](CCO[C@H]2C[C@H](CCc3ccc4c(n3)NCCC4)C2)C(=O)O)C1 [Compound 172, N-(1-(tert-butoxycarbonyl)-3-methylazetidine-3-carbonyl)-O-(trans-3-(2-(5,6,7,8-tetrahydro-1,8-naphthyridin-2-yl)ethyl)cyclobutyl)homoserine] | < 50 nM
CC(C)(C)OC(=O)N1CC(C(=O)N[C@@H](CCO[C@H]2C[C@H](CCc3ccc4c(n3)NCCC4)C2)C(=O)O)C1 [Compound 173, N-(1-(tert-butoxycarbonyl)azetidine-3-carbonyl)-O-(trans-3-(2-(5,6,7,8-tetrahydro-1,8-naphthyridin-2-yl)ethyl)cyclobutyl)homoserine] | < 50 nM
O=C(O)[C@H](CCO[C@H]1C[C@H](CCc2ccc3c(n2)NCCC3)C1)NC(=O)C1(C(F)(F)F)CCOCC1 [Compound 174, O-(trans-3-(2-(5,6,7,8-tetrahydro-1,8-naphthyridin-2-yl)ethyl)cyclobutyl)-N-(4-(trifluoromethyl)tetrahydro-2H-pyran-4-carbonyl)homoserine] | < 50 nM
O=C(O)[C@H](CCO[C@H]1C[C@@H](CCc2ccc3c(n2)NCCC3)C1)NC(=O)C1(C(F)(F)F)CCOCC1 [Compound 183, O-(cis-3-(2-(5,6,7,8-tetrahydro-1,8-naphthyridin-2-yl)ethyl)cyclobutyl)-N-(4-(trifluoromethyl)tetrahydro-2H-pyran-4-carbonyl)homoserine] | 50 to 250 nM
CC(C)(C)OC(=O)NCC1(C(=O)N[C@@H](CCO[C@H]2C[C@@H](CCc3ccc4c(n3)NCCC4)C2)C(=O)O)CCOCC1 [Compound 184, N-(4-(((tert-butoxycarbonyl)amino)methyl)tetrahydro-2H-pyran-4-carbonyl)-O-(cis-3-(2-(5,6,7,8-tetrahydro-1,8-naphthyridin-2-yl)ethyl)cyclobutyl)homoserine] | < 50 nM
CC1(C(=O)NC(CCOCCCCc2ccc3c(n2)NCCC3)C(=O)O)CCOCC1 (centres unmarked) [Compound 187, N-(4-methyltetrahydro-2H-pyran-4-carbonyl)-O-(4-(5,6,7,8-tetrahydro-1,8-naphthyridin-2-yl)butyl)homoserine] | 250 to 1000 nM
O=C(NC(CCOCCCCc1ccc2c(n1)NCCC2)C(=O)O)c1c(Cl)cccc1Cl (centres unmarked) [Compound 188, N-(2,6-dichlorobenzoyl)-O-(4-(5,6,7,8-tetrahydro-1,8-naphthyridin-2-yl)butyl)homoserine] | 50 to 250 nM
CC(C)(C)c1ccc(C2(C(=O)N[C@@H](CCO[C@H]3C[C@H](CCc4ccc5c(n4)NCCC5)C3)C(=O)O)CCC2)cc1 [Compound 190, N-(1-(4-(tert-butyl)phenyl)cyclobutane-1-carbonyl)-O-(trans-3-(2-(5,6,7,8-tetrahydro-1,8-naphthyridin-2-yl)ethyl)cyclobutyl)homoserine] | < 50 nM
CC(C)(C)OC(=O)NC(CCO[C@H]1C[C@H](CCc2ccc3c(n2)NCCC3)C1)C(=O)O (stereo partly drawn) [Example 12A, N-(tert-butoxycarbonyl)-O-(trans-3-(2-(5,6,7,8-tetrahydro-1,8-naphthyridin-2-yl)ethyl)cyclobutyl)homoserine] | 50 to 250 nM
